Assay results published in patent US7964624B1, “Inhibitors of serine proteases” (priority 2005, dated 2011).

target: T1, full-length hepatitis C viral protein NS3•4A (Hepatitis C virus genotype 1a, UniProt P27958); test: biochemical; set-up: species or system HCV sub-type strain 1a; conditions: Enzyme Assay 2 (HCV NS3 Peptide Cleavage Assay) activity, apparent Ki class
T1 construct: hexa-histidine (N); made in house; host or cells: Sf9 insect cells (baculovirus, pVL1392)

`CNC(=O)C(=O)[C@H](CC1CC1)NC(=O)[C@@H]1C[C@@]2(CC(c3nc(-c4ccccc4)no3)=NO2)CN1C(=O)[C@@H](NC(=O)OC1CCCC1)C(C)(C)C` [Compound 694] and `CNC(=O)C(=O)C(CC1CC1)NC(=O)[C@@H]1C[C@]2(CC(c3cc(C)c(OC)c(C)c3)=NO2)CN1C(=O)[C@@H](NC(=O)OC1CCCC1)C(C)(C)C` (stereo partly shown) [Compound 768] fall in the same range of Ki: 0.1 to 0.5 µM for the first, 0.1 to 0.5 µM for the second.

`COc1c(C)cc(C2=NO[C@]3(C2)C[C@@H](C(=O)N[C@@H](CC2CC2)C(=O)C(=O)NC2CC2)N(C(=O)[C@@H](NC(=O)OC(C)(C)C)C(C)(C)C)C3)cc1C` [Compound 757] and `CCC[C@H](NC(=O)[C@@H]1C[C@]2(CC(c3cc(C)c(OC)c(C)c3)=NO2)CN1C(=O)[C@@H](NC(=O)OC1CCCC1)C(C)(C)C)C(=O)C(N)=O` [Compound 760] cannot be ordered by Ki: under 0.1 µM for the first, under 0.1 µM for the second.

`CCC[C@H](NC(=O)[C@@H]1C[C@]2(CC(c3cccc(Cl)c3)=NO2)CN1C(=O)[C@@H](NC(=O)CC1CCCCC1)C(C)(C)C)C(=O)C(=O)N1CC(OC2CCOC2)C1` (stereo partly shown) [Compound 368] and `CCC[C@H](NC(=O)[C@@H]1C[C@]2(CC(c3cccc([N+](=O)[O-])c3)=NO2)CN1C(=O)[C@@H](NC(=O)CC1CCCCC1)C(C)(C)C)C(=O)C(=O)NC1CC1` [Compound 89] fall in the same range of Ki: 0.1 to 0.5 µM for the first, 0.1 to 0.5 µM for the second.

`CCC[C@H](NC(=O)[C@@H]1C[C@]2(CC(c3ccc(F)c(Cl)c3)=NO2)CN1C(=O)[C@@H](NC(=O)OC(C)(C)C)C(C)(C)C)C(=O)C(N)=O` [Compound 627] and `CCC[C@H](NC(=O)[C@@H]1C[C@]2(CC(c3ccc(F)c(Cl)c3)=NO2)CN1C(=O)[C@@H](NC(=O)OC(C)(C)C)C(C)(C)C)C(=O)C(=O)NC` [Compound 631] cannot be ordered by Ki: under 0.1 µM for the first, under 0.1 µM for the second.

First: COc1cc(OC)c(C2=NO[C@]3(C2)C[C@@H](C(=O)N[C@@H](CC2CC2)C(=O)C(N)=O)N(C(=O)[C@@H](NC(=O)CC2CCCCC2)C(C)(C)C)C3)cc1Cl [Compound 562]
Second: COc1c(C)cc(C2=NO[C@]3(C2)CC(C(=O)N[C@H](CC2CC2)C(=O)C(N)=O)N(C(=O)[C@@H](NC(=O)CC2CCCCC2)C(C)(C)C)C3)cc1Cl (stereo partly shown) [Compound 658]
The Ki of the first is lower: under 0.1 µM for the first, 0.1 to 0.5 µM for the second. The first binds more tightly here.

First: CNC(=O)C(=O)[C@H](CC1CC1)NC(=O)[C@@H]1C[C@]2(CC(c3cccc(Cl)c3)=NO2)CN1C(=O)[C@@H](NC(=O)CC(C)(C)OC)C(C)(C)C [Compound 773]
Second: CC1(CC(=O)N[C@H](C(=O)N2C[C@@]3(CC(c4cccc(Cl)c4)=NO3)C[C@H]2C(=O)N[C@@H](CC2CC2)C(=O)C(N)=O)C(C)(C)C)CCOCC1 [Compound 184]
The Ki of the first is higher: 0.1 to 0.5 µM for the first, under 0.1 µM for the second.

`CCC[C@H](NC(=O)[C@@H]1C[C@]2(CC(c3ccc(F)c(Cl)c3)=NO2)CN1C(=O)[C@@H](NC(=O)CC1CCCCC1)C(C)(C)C)C(=O)C(=O)NC` [Compound 609] and `CCC[C@H](NC(=O)[C@@H]1C[C@]2(CC(c3ccc(F)c(Cl)c3)=NO2)CN1C(=O)[C@@H](NC(=O)CC(C)(C)C)C(C)(C)C)C(=O)C(=O)NC1CC1` [Compound 613] cannot be ordered by Ki: under 0.1 µM for the first, under 0.1 µM for the second.

`COc1cc(C)c(C2=NO[C@]3(C2)C[C@@H](C(=O)N[C@@H](CC2CC2)C(=O)C(=O)NC2CC2)N(C(=O)[C@@H](NC(=O)CC2CCCCC2)C(C)(C)C)C3)cc1Cl` [Compound 709] and `CNC(=O)C(=O)[C@H](CC1CC1)NC(=O)[C@@H]1C[C@]2(CC(c3cccc4cccnc34)=NO2)CN1C(=O)[C@@H](NC(=O)CC1CCCCC1)C(C)(C)C` [Compound 671] fall in the same range of Ki: 0.1 to 0.5 µM for the first, 0.1 to 0.5 µM for the second.

`COc1cc(OC)c(C2=NO[C@]3(C2)C[C@@H](C(=O)N[C@@H](CC2CC2)C(=O)C(N)=O)N(C(=O)[C@@H](NC(=O)CC(C)(C)C)C(C)(C)C)C3)cc1Cl` [Compound 104] and `CCC[C@H](NC(=O)[C@@H]1C[C@]2(CC(c3ccc(F)c(Cl)c3)=NO2)CN1C(=O)[C@@H](NC(=O)CC(C)(C)C)C(C)(C)C)C(=O)C(N)=O` [Compound 625] cannot be ordered by Ki: under 0.1 µM for the first, under 0.1 µM for the second.

First: CNC(=O)C(=O)[C@H](CC1CC1)NC(=O)[C@@H]1C[C@]2(CC(c3cc(Cl)cc4c3OCO4)=NO2)CN1C(=O)[C@@H](NC(=O)OC(C)(C)C)C(C)(C)C [Compound 691]
Second: CCC[C@H](NC(=O)[C@@H]1C[C@]2(CC(c3ccc(F)c(Cl)c3)=NO2)CN1C(=O)[C@@H](NC(=O)OC(C)(C)C)C(C)(C)C)C(=O)C(=O)NC1CC1 [Compound 629]
The Ki of the first is higher: 0.1 to 0.5 µM for the first, under 0.1 µM for the second.

For `CCC[C@H](NC(=O)[C@@H]1C[C@]2(CC(c3cccc(Cl)c3)=NO2)CN1C(=O)[C@@H](NC(=O)CC1CCCCC1)C1(OC)CC1)C(=O)C(=O)NC1CC1` [Compound 211], the Ki was under 0.1 µM.

same assay, conditions: Enzyme Assay 2, HCV NS3 Peptide Cleavage Assay, apparent Ki

`CCC[C@H](NC(=O)[C@@H]1C[C@]2(CC(c3cc(C)c(OCC)c(C)c3)=NO2)CN1C(=O)[C@@H](NC(=O)OC1CCCC1)C(C)(C)C)C(=O)C(=O)NC1CC1` [Compound 860] and `CCC[C@H](NC(=O)[C@@H]1C[C@]2(CC(c3cc(C)c(OCC)c(C)c3)=NO2)CN1C(=O)[C@@H](NC(=O)[C@@H]1C[C@H]1C1CCCCC1)C(C)(C)C)C(=O)C(=O)NC` [Compound 993] cannot be ordered by Ki: under 0.1 µM for the first, under 0.1 µM for the second.

`CC(C)(C)[C@H](NC(=O)[C@@H]1C[C@H]1c1ccccc1)C(=O)N1C[C@@]2(CC(c3cccc4cccnc34)=NO2)C[C@H]1C(=O)N[C@@H](CC1CC1)C(=O)C(N)=O` [Compound 806] and `CNC(=O)C(=O)[C@H](CC1CC1)NC(=O)[C@@H]1C[C@]2(CC(c3cccc(Cl)c3)=NO2)CN1C(=O)[C@@H](NC(=O)[C@@H]1C[C@H]1c1ccccc1OC)C(C)(C)C` [Compound 867] cannot be ordered by Ki: under 0.1 µM for the first, under 0.1 µM for the second.

`CCC[C@H](NC(=O)[C@@H]1C[C@]2(CC(c3cccc(Cl)c3)=NO2)CN1C(=O)[C@@H](NC(=O)[C@@H]1C[C@H]1C(C)C)C(C)(C)C)C(=O)C(=O)NC1CC1` [Compound 897] and `CCC[C@H](NC(=O)[C@@H]1C[C@]2(CC(c3cccc(Cl)c3)=NO2)CN1C(=O)[C@@H](NC(=O)C1(C#N)CC1)C(C)(C)C)C(=O)C(=O)NC1CC1` [Compound 823] cannot be ordered by Ki: under 0.1 µM for the first, under 0.1 µM for the second.

`CCC[C@H](NC(=O)[C@@H]1C[C@]2(CC(c3cc(C)c(OCC)c(C)c3)=NO2)CN1C(=O)[C@@H](NC(=O)[C@@H]1C[C@H]1c1ccccc1OC)C(C)(C)C)C(=O)C(=O)NC` [Compound 991] and `CCC[C@H](NC(=O)[C@@H]1C[C@]2(CC(c3cc(C)c(OCC)c(C)c3)=NO2)CN1C(=O)[C@@H](NC(=O)[C@H]1C[C@@H]1c1ccc(F)cc1)C(C)(C)C)C(=O)C(=O)NC` [Compound 997] cannot be ordered by Ki: under 0.1 µM for the first, under 0.1 µM for the second.

`CCC[C@H](NC(=O)[C@@H]1C[C@]2(CC(c3cc(Cl)c(OC)cc3OC)=NO2)CN1C(=O)[C@@H](NC(=O)[C@@H]1CC1c1ccccc1)C(C)(C)C)C(=O)C(N)=O` (stereo partly shown) [Compound 801] and `CCC[C@H](NC(=O)[C@@H]1C[C@]2(CC(c3cc(Cl)c(OCC)cc3OC)=NO2)CN1C(=O)[C@@H](NC(=O)CC1CCCCC1)C(C)(C)C)C(=O)C(=O)NC1CC1` [Compound 818] cannot be ordered by Ki: under 0.1 µM for the first, under 0.1 µM for the second.

First: CCOc1cc(OC)c(C2=NO[C@]3(C2)C[C@@H](C(=O)N[C@@H](CC2CC2)C(=O)C(=O)NC)N(C(=O)[C@@H](NC(=O)OC2CCCC2)C(C)(C)C)C3)cc1Cl [Compound 947]
Second: CNC(=O)C(=O)[C@H](CC1CC1)NC(=O)[C@@H]1C[C@]2(CC(N3Cc4ccccc4C3)=NO2)CN1C(=O)[C@@H](NC(=O)OC1CCCC1)C(C)(C)C [Compound 965]
The Ki of the first is lower: under 0.1 µM for the first, 0.1 to 0.5 µM for the second.

Work on `CCC[C@H](NC(=O)[C@@H]1C[C@]2(CC(c3cccc(Cl)c3)=NO2)CN1C(=O)[C@@H](NC(=O)[C@@H]1CC12CCOCC2)C(C)(C)C)C(=O)C(=O)NC1CC1` [Compound 923] yielded a Ki of under 0.1 µM.
